Source: US20240382629A1, “HETEROBIVALENT AND HOMOBIVALENT AGENTS TARGETING FIBROBLAST ACTIVATION PROTEIN ALPHA AND/OR PROSTATE-SPECIFIC MEMBRANE ANTIGEN” (The Johns Hopkins University, priority 2021, published 2024)
Values joined by “and” are separate entries in the source; they are usually repeats but may differ in a detail not shown here. Equal entries are not always repeated.

Tested on: U87 tumor
Assay: Biodistribution ([^18F]JHU1221823), carrier / specific activity study
Format: in vivo, mouse
Conditions: individual mouse
Excerpt: Biodistribution of Representative Compounds

[1] = NOD/SCID, U87 tumor, Carrier 700, 60 min post injection
[2] = Nude mice, U87 tumor, Baseline (~5000 mCi/μmol), 60 min post injection
[3] = Nude mice, U87 tumor, Carrier 350 (350 mCi/μmol), 60 min post injection
[4] = Nude mice, U87 tumor, Carrier 700, 60 min post injection
[5] = U87 tumor, Baseline, second block (stands before <NOD/SCID> heading), 60 min post injection

## N#C[C@@H]1CCCN1C(=O)CNC(=O)c1ccnc2ccc(OCCCNC(=O)CCOCCOCCOCCOCCNC(=O)[C@H](CCCCNC(=O)c3ccc([18F])nc3)NC(=O)CN3CCN(CC(=O)O)CCN(CC(=O)O)CCN(CC(=O)O)CC3)cc12 [[^18F]JHU1221823]
[1]
  Liver % ID/g: 2.36 % ID/g
  Lung % ID/g: 3.66 % ID/g
  Muscle % ID/g: 1.99 % ID/g
  Pancreas % ID/g: 13.03 % ID/g
  Salivary gland % ID/g: 11.31 % ID/g
  Small intestine % ID/g: 3.48 % ID/g
  Spleen % ID/g: 1.46 % ID/g
  Stomach % ID/g: 1.64 % ID/g
  Tumor % ID/g: 7.79 % ID/g
[2]
  Bladder % ID/g: 2.02 % ID/g and 2.74 % ID/g
  Blood % ID/g: 10.83 % ID/g and 12.08 % ID/g
  Brain % ID/g: 0.22 % ID/g and 0.24 % ID/g
  Fat % ID/g: 1.10 % ID/g and 0.89 % ID/g
  Femur % ID/g: 1.98 % ID/g and 2.84 % ID/g
  Heart % ID/g: 5.09 % ID/g and 5.98 % ID/g
  Kidney % ID/g: 2.76 % ID/g and 3.06 % ID/g
  Large intestine % ID/g: 1.38 % ID/g and 1.42 % ID/g
  Liver % ID/g: 3.56 % ID/g and 3.06 % ID/g
  Lung % ID/g: 6.48 % ID/g and 7.46 % ID/g
  Muscle % ID/g: 1.44 % ID/g and 2.06 % ID/g
  Pancreas % ID/g: 3.42 % ID/g and 3.30 % ID/g
  Salivary gland % ID/g: 6.35 % ID/g and 7.47 % ID/g
  Small intestine % ID/g: 2.47 % ID/g and 2.93 % ID/g
  Spleen % ID/g: 2.17 % ID/g and 1.96 % ID/g
  Stomach % ID/g: 1.14 % ID/g and 1.32 % ID/g
  Tumor % ID/g: 2.14 % ID/g and 2.52 % ID/g
[3]
  Bladder % ID/g: 1.62 % ID/g and 1.85 % ID/g
  Blood % ID/g: 6.11 % ID/g and 4.56 % ID/g
  Brain % ID/g: 0.16 % ID/g and 0.12 % ID/g
  Fat % ID/g: 0.54 % ID/g and 1.24 % ID/g
  Femur % ID/g: 3.83 % ID/g and 4.47 % ID/g
  Heart % ID/g: 2.83 % ID/g and 2.18 % ID/g
  Kidney % ID/g: 2.25 % ID/g and 1.88 % ID/g
  Large intestine % ID/g: 1.92 % ID/g and 1.61 % ID/g
  Liver % ID/g: 2.06 % ID/g and 1.75 % ID/g
  Lung % ID/g: 3.70 % ID/g and 3.20 % ID/g
  Muscle % ID/g: 2.58 % ID/g and 2.23 % ID/g
  Pancreas % ID/g: 5.80 % ID/g and 6.78 % ID/g
  Salivary gland % ID/g: 10.81 % ID/g and 11.50 % ID/g
  Small intestine % ID/g: 2.29 % ID/g and 2.54 % ID/g
  Spleen % ID/g: 1.45 % ID/g and 1.12 % ID/g
  Stomach % ID/g: 1.60 % ID/g and 1.53 % ID/g
  Tumor % ID/g: 2.01 % ID/g and 2.53 % ID/g
[4]
  Bladder % ID/g: 2.15 % ID/g and 2.30 % ID/g
  Blood % ID/g: 10.55 % ID/g and 9.33 % ID/g
  Brain % ID/g: 0.21 % ID/g and 0.19 % ID/g
  Fat % ID/g: 0.41 % ID/g and 0.56 % ID/g
  Femur % ID/g: 2.93 % ID/g and 3.18 % ID/g
  Heart % ID/g: 4.92 % ID/g and 4.38 % ID/g
  Kidney % ID/g: 2.54 % ID/g and 2.52 % ID/g
  Large intestine % ID/g: 1.45 % ID/g and 1.79 % ID/g
  Liver % ID/g: 2.76 % ID/g and 2.85 % ID/g
  Lung % ID/g: 6.05 % ID/g and 5.08 % ID/g
  Muscle % ID/g: 2.06 % ID/g and 2.07 % ID/g
  Pancreas % ID/g: 3.40 % ID/g and 4.43 % ID/g
  Salivary gland % ID/g: 9.08 % ID/g and 7.18 % ID/g
  Small intestine % ID/g: 2.37 % ID/g and 1.98 % ID/g
  Spleen % ID/g: 1.75 % ID/g and 1.70 % ID/g
  Stomach % ID/g: 1.18 % ID/g and 1.57 % ID/g
  Tumor % ID/g: 1.81 % ID/g and 2.22 % ID/g
[5]
  Bladder % ID/g: 3.22 % ID/g and 10.62 % ID/g
  Blood % ID/g: 11.98 % ID/g and 10.01 % ID/g
  Brain % ID/g: 0.23 % ID/g and 0.21 % ID/g
  Fat % ID/g: 0.53 % ID/g and 0.71 % ID/g
  Femur % ID/g: 1.95 % ID/g and 2.78 % ID/g
  Heart % ID/g: 7.41 % ID/g and 6.48 % ID/g
  Kidney % ID/g: 3.14 % ID/g and 3.67 % ID/g
  Large intestine % ID/g: 1.66 % ID/g and 2.70 % ID/g
  Liver % ID/g: 4.04 % ID/g and 4.72 % ID/g
  Lung % ID/g: 7.27 % ID/g and 6.79 % ID/g
  Muscle % ID/g: 1.14 % ID/g and 2.13 % ID/g
  Pancreas % ID/g: 6.82 % ID/g and 9.52 % ID/g
  Salivary gland % ID/g: 11.69 % ID/g and 12.09 % ID/g
  Small intestine % ID/g: 3.79 % ID/g and 3.54 % ID/g
  Spleen % ID/g: 2.33 % ID/g and 1.99 % ID/g
  Stomach % ID/g: 1.66 % ID/g and 1.97 % ID/g
  Tumor % ID/g: 1.17 % ID/g and 5.00 % ID/g
Carrier not given
  Bladder % ID/g: 6.41 % ID/g and 2.64 % ID/g
  Blood % ID/g: 9.28 % ID/g and 9.80 % ID/g
  Brain % ID/g: 0.23 % ID/g and 0.22 % ID/g
  Fat % ID/g: 0.47 % ID/g and 1.68 % ID/g
  Femur % ID/g: 2.55 % ID/g and 3.11 % ID/g
  Heart % ID/g: 4.31 % ID/g and 4.98 % ID/g
  Kidney % ID/g: 2.70 % ID/g and 2.77 % ID/g
  Large intestine % ID/g: 1.29 % ID/g and 1.69 % ID/g
  Liver % ID/g: 2.68 % ID/g and 3.29 % ID/g
  Lung % ID/g: 5.58 % ID/g and 5.91 % ID/g
  Muscle % ID/g: 1.79 % ID/g and 1.78 % ID/g
  Pancreas % ID/g: 1.62 % ID/g and 2.66 % ID/g
  Salivary gland % ID/g: 7.44 % ID/g and 6.43 % ID/g
  Small intestine % ID/g: 2.59 % ID/g and 3.46 % ID/g
  Spleen % ID/g: 1.85 % ID/g and 2.43 % ID/g
  Stomach % ID/g: 0.84 % ID/g and 1.45 % ID/g
  Tumor % ID/g: 4.35 % ID/g and 7.0+ % ID/g
